92 compounds from ChEMBL document CHEMBL5604062, “ASAP - ZIKV NS2B-NS3 protease fluorescence dose response” (2024) can be followed below.

SMILES strings stand for the structures. Where “and” joins values, the source holds several entries; their conditions need not be identical. Equal entries are not always repeated. Some results are limits rather than exact numbers.

A word on the IC50: it is the concentration that gives 50% inhibition.

This test deals with Nonstructural protein 3 (Zika virus, UniProt A0A024AXB9). Description: Functional biochemical assay to identify treatments for viral infectious disease that targets Zika NS2B-NS3 protease. Utilizing a direct enzyme activity measurement method, reading the fluorescence intensity is used to characterize the relative potency of inhibitors as IC50. Set-up: species or system PRVABC59.
Sequence of Nonstructural protein 3 (A0A024AXB9 whole entry): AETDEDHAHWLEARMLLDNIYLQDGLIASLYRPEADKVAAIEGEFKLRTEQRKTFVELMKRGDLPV

Consider `OC1(c2ccccc2)CCN(Cc2c[nH]c3ccccc23)CC1`, for which the IC50 was greater than 99.5 µM.

`CCCC[C@H](NC(C)=O)C(=O)N[C@H](C(=O)NCc1ccc(C(N)=O)cc1)c1ccc(OCc2ccccc2)cc1` returned a half-maximal inhibitory concentration (IC50) greater than 99.5 µM.

On to `CNC(=O)c1cc(Cl)ccc1NS(=O)(=O)c1cccc(Oc2ccccc2)c1`, for which the IC50 is greater than 99.5 µM.

For the compound `CCOc1cc(COc2cccnc2F)nc(N2CCNCC2)n1`, the concentration for half-maximal inhibition (IC50) was greater than 99.5 µM.

In turn, `C[C@@H](NC(=O)c1cc(Cl)ccc1NS(=O)(=O)c1ccc(Oc2ccccc2Cl)cc1)[C@H]1CCCO1` displayed an IC50 greater than 99.5 µM.

In turn, `CCc1cc(C)nc(C2CCN(Cc3c[nH]c4ccccc34)CC2)n1` showed an IC50 of 59.4 µM.

On to `O=C(c1cc(Cl)ccc1NS(=O)(=O)c1ccc(Oc2ccccc2Cl)cc1)N1CC[C@H](CO)C1`, for which the IC50 is greater than 99.5 µM.

`Cn1nccc1C1CCN(Cc2c[nH]c3ccccc23)CC1` returned an IC50 greater than 99.5 µM.

In turn, `O=S(=O)(Nc1ccc(Oc2ccccc2Cl)cc1)c1c[nH]c2ccc(Cl)cc12` returned a half-maximal inhibitory concentration (IC50) greater than 99.5 µM.

`Cc1ccc(CNC(=O)c2cc(Cl)ccc2NS(=O)(=O)c2ccc(Oc3ccccc3Cl)cc2)s1`: the concentration for half-maximal inhibition (IC50) is greater than 99.5 µM.

The compound `CC[C@H]1CCN(C(=O)c2cc(Cl)ccc2NS(=O)(=O)c2ccc(Oc3ccccc3Cl)cc2)C1` registered a concentration for half-maximal inhibition (IC50) greater than 99.5 µM.

`CCCC[C@@H](NC(=O)OC(C)(C)C)C(=O)N[C@@H](C(=O)NCc1ccc(CN)cc1)c1ccc(OCc2ccccc2)cc1` had an IC50 of 25.6 µM.

`CNc1cc(COc2cccnc2F)nc(N2CCNCC2)n1` displayed an IC50 greater than 99.5 µM.

With `CCCC[C@H](N)C(=O)N[C@H](C(=O)NCc1ccc(C(N)=O)cc1)c1ccc(OCc2ccccc2)cc1`, inhibition was half-maximal at 81 µM (IC50).

With `CCC1CCN(Cc2c[nH]c3ccccc23)CC1`, the concentration for half-maximal inhibition (IC50) was greater than 99.5 µM.

Consider `c1ccc(COC2CCN(Cc3c[nH]c4ccccc34)CC2)cc1`, for which the IC50 is greater than 99.5 µM.

As for `CCc1ccc(NS(=O)(=O)c2ccc(Oc3ccccc3Cl)cc2)c(C(=O)NC)c1`, the concentration for half-maximal inhibition (IC50) is greater than 99.5 µM.

Take `CC(C)(C)OC(=O)Cn1ccnc(N2CC[C@@H](CO)C2)c1=O`: the IC50 is greater than 99.5 µM.

Compound `C[C@H]1COCCN1C(=O)c1cc(Cl)ccc1NS(=O)(=O)c1ccc(Oc2ccccc2Cl)cc1` registered a concentration for half-maximal inhibition (IC50) greater than 99.5 µM.

As to `CNC(=O)c1cc(Cl)c(OC)cc1NS(=O)(=O)c1ccc(Oc2ccccc2Cl)cc1`, the IC50 worked out at 53.4 µM.

The compound `CCCC[C@H](N)C(=O)N[C@@H](C(=O)NCc1ccc(C(N)=O)cc1)c1ccc(OCc2ccccc2)cc1` gave a 50% inhibitory concentration (IC50) greater than 99.5 µM.

In turn, `COC[C@@H](C)CNC(=O)c1cc(Cl)ccc1NS(=O)(=O)c1ccc(Oc2ccccc2Cl)cc1` yielded an IC50 greater than 99.5 µM.

`NC[C@H]1C[C@@H](NC(=O)[C@@H](NC(=O)OCc2ccccc2)c2ccc(OCc3ccccc3)cc2)C1` had a half-maximal inhibitory concentration (IC50) of 85.2 µM.

The compound `O=C(NC[C@H]1CCCO1)c1cc(Cl)ccc1NS(=O)(=O)c1ccc(Oc2ccccc2Cl)cc1` displayed an IC50 greater than 99.5 µM.

In the case of `O[C@H]1CCCN(Cc2c[nH]c3ccccc23)C1`, the IC50 was greater than 99.5 µM.

Compound `CC(C)Oc1cc(COc2cccnc2F)nc(N2CCNCC2)n1` yielded a half-inhibitory concentration (IC50) greater than 99.5 µM.

Take `CCCCCC(=O)N[C@H](C(=O)NCc1cccc(CN)c1)C1CCCCC1`: the 50% inhibitory concentration (IC50) is greater than 99.5 µM.

Consider `NC(=O)c1ccccc1NS(=O)(=O)c1ccc(Oc2ccccc2Cl)cc1`, for which the half-maximal inhibitory concentration (IC50) was greater than 99.5 µM.

The compound `NCc1cccc(NC(=O)c2cccc(NC(=O)OCc3ccccc3)n2)c1` came in with an IC50 greater than 99.5 µM.

`c1ccc2c(CN3CCC(c4ccn[nH]4)CC3)c[nH]c2c1`: 66.2 µM corresponded to half-maximal inhibition (IC50).

`CCCN(C)C(=O)c1cc(Cl)ccc1NS(=O)(=O)c1ccc(Oc2ccccc2Cl)cc1` came in with a 50% inhibitory concentration (IC50) greater than 99.5 µM.

`CCCCCNC(=O)c1cc(Cl)ccc1NS(=O)(=O)c1ccc(Oc2ccccc2Cl)cc1` came in with an IC50 greater than 99.5 µM.

`CCn1ccnc(N2C[C@@H](O)[C@H](c3c[nH]c4ccccc34)C2)c1=O` gave an IC50 greater than 99.5 µM.

In turn, `O=C(N[C@@H](C(=O)NC1CNC1)c1ccc(OCc2ccccc2)cc1)OCc1ccccc1` had an IC50 greater than 99.5 µM.

The compound `NC[C@H]1CCN1C(=O)[C@@H](NC(=O)OCc1ccccc1)c1ccc(OCc2ccccc2)cc1` had an IC50 greater than 99.5 µM.

`CC(C)Oc1ccc(S(=O)(=O)Nc2ccc(Cl)cc2C(=O)O)cc1`: the IC50 is greater than 99.5 µM.

The compound `NCc1cccc(NC(=O)[C@@H](NC(=O)OCc2ccccc2)C2CCCCC2)c1` displayed an IC50 greater than 99.5 µM.

`COc1cc(C(=O)Nc2cnc3ccccc3c2)nc(N2CCNCC2)n1` came in with an IC50 greater than 99.5 µM.

`OCCOc1cc(COc2cccnc2F)nc(N2CCNCC2)n1` returned an IC50 greater than 99.5 µM.

For the compound `CC(C)(CO)CN1CC[C@H](c2c[nH]c3ccccc23)C1`, the IC50 was greater than 99.5 µM.

For the compound `NCc1cccc(NC(=O)[C@@H](NC(=O)OCc2ccccc2)c2ccc(F)cc2F)c1`, the concentration for half-maximal inhibition (IC50) was greater than 99.5 µM.

The compound `CCn1c(=O)c(N2CC[C@@H](CO)C2)nc2ccccc21` yielded a half-maximal inhibitory concentration (IC50) greater than 99.5 µM.

`CC(C)c1ccc([C@@H](NC(=O)OCc2ccccc2)C(=O)Nc2cccc(CN)c2)cc1` registered an IC50 of 87.7 µM.

As for `O=C(N[C@@H](C(=O)NC1CCNCC1)c1ccc(OCc2ccccc2)cc1)OCc1ccccc1`, the IC50 is greater than 99.5 µM.

With `C[C@@H](N)c1cccc(NC(=O)[C@@H](NC(=O)OCc2ccccc2)c2ccc(OCc3ccccc3)cc2)c1`, the half-maximal inhibitory concentration (IC50) came out at 33.6 µM.

In turn, `c1cnc(C2CCN(Cc3c[nH]c4ccccc34)CC2)nc1` came in with an IC50 of 50.6 µM.

For `COc1cccc(C2CCN(Cc3c[nH]c4ccccc34)CC2)c1`, half-maximal inhibition (IC50) was put at 64.3 µM.

`c1ccc2c(CN3CCC(c4cscn4)CC3)c[nH]c2c1` gave a half-maximal inhibitory concentration (IC50) of 22.1 µM.

`NCc1cccc(NC(=O)[C@H]2c3ccccc3CCN2C(=O)OCc2ccccc2)c1` gave an IC50 greater than 99.5 µM.

In turn, `NC(=O)[C@H]1CCCN(Cc2c[nH]c3ccccc23)C1` yielded an IC50 greater than 99.5 µM.

As to `NCc1cccc(NC(=O)[C@@H](NC(=O)OCc2ccccc2)C(C2CCC2)C2CCC2)c1`, the IC50 was 66.3 µM and 82.1 µM.

For `c1cc(CN2CCC(c3c[nH]c4cccnc34)CC2)c2[nH]ncc2c1`, the concentration for half-maximal inhibition (IC50) is greater than 99.5 µM.

With `O=S(=O)(Nc1ccc(Cl)cc1)c1ccc(Oc2ccccc2Cl)cc1`, the concentration for half-maximal inhibition (IC50) was greater than 99.5 µM.

`NCc1cccc(NC(=O)[C@H]2CCCN(C(=O)OCc3ccccc3)C2)c1` gave a half-maximal inhibitory concentration (IC50) greater than 99.5 µM.

Turning to `OC1CCN(Cc2c[nH]c3ccccc23)CC1`, the IC50 is greater than 99.5 µM.

Compound `O=C(Nc1ccc(Cl)cc1C(=O)O)c1ccc(Oc2ccccc2Cl)cc1` gave a half-inhibitory concentration (IC50) greater than 99.5 µM.

`c1ccc2c(CN3CCC(c4cnco4)CC3)c[nH]c2c1` gave an IC50 of 56.1 µM.

`CCn1ccnc(N2CC[C@H](c3ccc(F)cc3)C2)c1=O` returned an IC50 greater than 99.5 µM.

In turn, `c1ccc2sc(C3CCN(Cc4c[nH]c5ccccc45)CC3)nc2c1` returned a concentration for half-maximal inhibition (IC50) of 9.89 µM.

For `Fc1ncccc1OCc1cc(Cl)nc(N2CCNCC2)n1`, the 50% inhibitory concentration (IC50) is greater than 99.5 µM.

For the compound `NCc1cccc(NC(=O)[C@@H](NC(=O)OCc2ccccc2)c2cc(F)cc(F)c2)c1`, the half-inhibitory concentration (IC50) was greater than 99.5 µM.

The compound `CC(C)CNC(=O)c1cc(Cl)ccc1NS(=O)(=O)c1ccc(Oc2ccccc2Cl)cc1` came in with an IC50 of 34.3 µM.

Compound `CC(=O)N[C@@H](C(=O)Nc1cccc(CN)c1)c1ccc(OCc2ccccc2)cc1` returned an IC50 greater than 99.5 µM.

`O[C@@H]1CNC[C@H]1c1c[nH]c2ccccc12` yielded an IC50 greater than 99.5 µM.

Turning to `NCc1cccc(NC(=O)[C@H]2c3ccc(OCc4ccccc4)cc3CCN2C(=O)OCc2ccccc2)c1`, half-maximal inhibition (IC50) required 17.3 µM.

Compound `CC(C)(C)Oc1ccc(S(=O)(=O)Nc2ccc(Cl)cc2C(=O)O)cc1` returned a 50% inhibitory concentration (IC50) greater than 99.5 µM.

With `CCOc1ccc([C@@H](NC(=O)OCc2ccccc2)C(=O)Nc2cccc(CN)c2)cc1`, the IC50 was greater than 99.5 µM.

In turn, `O=C(c1cc(Cl)ccc1NS(=O)(=O)c1ccc(Oc2ccccc2Cl)cc1)N1CCC[C@@H]1CO` returned an IC50 greater than 99.5 µM.

As to `NCc1cccc(NC(=O)[C@@H](NC(=O)OCc2ccccc2)c2cccc(F)c2F)c1`, the 50% inhibitory concentration (IC50) is greater than 99.5 µM.

`O=c1c(N2CC[C@H](CO)C2)nccn1C1CC1` gave an IC50 greater than 99.5 µM.

`c1cc(C2CCN(Cc3c[nH]c4ccccc34)CC2)c2ccncc2c1`: the IC50 stood at 24.6 µM.

In turn, `O=C(O)c1cc(Cl)ccc1NCc1ccc(Oc2ccccc2Cl)cc1` gave a 50% inhibitory concentration (IC50) greater than 99.5 µM.

As to `CN(CCS(N)(=O)=O)C(=O)c1cc(Cl)ccc1NS(=O)(=O)c1ccc(Oc2ccccc2Cl)cc1`, the IC50 was greater than 99.5 µM.

In turn, `COc1ccc(S(=O)(=O)Nc2ccc(Cl)cc2C(=O)O)cc1` gave a half-maximal inhibitory concentration (IC50) greater than 99.5 µM.

As for `O=C(c1cc(Cl)ccc1NS(=O)(=O)c1ccc(Oc2ccccc2Cl)cc1)N1CCC[C@H](O)C1`, the IC50 is greater than 99.5 µM.

As to `CCn1ccnc(N[C@@H](Cc2c[nH]c3ccccc23)C(N)=O)c1=O`, the IC50 is greater than 99.5 µM.

On to `NCc1cccc(NC(=O)[C@H]2COC3(CCOCC3)N2C(=O)OCc2ccccc2)c1`, for which the IC50 was greater than 99.5 µM.

`CNC(=O)c1cc(Cl)c(F)cc1NS(=O)(=O)c1ccc(Oc2ccccc2Cl)cc1`: inhibition was half-maximal at 37.9 µM (IC50).

The compound `NCc1cccc(NC(=O)[C@@H](NC(=O)OCc2ccccc2)c2ccc(Cl)cc2)c1` displayed an IC50 greater than 99.5 µM.

On to `FC(F)(F)c1ccccc1C1CCN(Cc2c[nH]c3ccccc23)CC1`, for which the concentration for half-maximal inhibition (IC50) was greater than 99.5 µM.

With `c1ccc2oc(C3CCN(Cc4c[nH]c5ccccc45)CC3)nc2c1`, the IC50 was found to be 60.6 µM.

Take `NCc1cccc(NC(=O)Cc2ccc(OCc3ccccc3)cc2)c1`: the IC50 is greater than 99.5 µM.

As to `NCc1cccc(NC(=O)[C@@H](Cc2c[nH]c3ccccc23)NC(=O)OCc2ccccc2)c1`, the IC50 is greater than 99.5 µM.

In the case of `c1ccc2c(CN3CCC(n4cccn4)CC3)c[nH]c2c1`, the IC50 was greater than 99.5 µM.

`NS(=O)(=O)c1ccc(C2CCN(Cc3c[nH]c4ccccc34)CC2)cc1`: the IC50 is 26.4 µM.

For the compound `O=C(N[C@@H](C(=O)N[C@H]1CCCNC1)c1ccc(OCc2ccccc2)cc1)OCc1ccccc1`, the IC50 was greater than 99.5 µM.

As for `CC[C@H]1CCN(c2nccn(CC)c2=O)C1`, the IC50 is greater than 99.5 µM.

Compound `O=C(O)c1cc(Cl)ccc1NS(=O)(=O)c1ccc(Oc2ccccc2Cl)cc1` gave a 50% inhibitory concentration (IC50) of 35.1 µM.

As for `CCn1ccnc(N(C)[C@@H](CO)Cc2c[nH]c3ccccc23)c1=O`, the half-inhibitory concentration (IC50) was greater than 99.5 µM.

Compound `O=C1NCc2ccccc2C12CCN(Cc1cc3ccc(F)cc3[nH]1)CC2` showed a half-maximal inhibitory concentration (IC50) greater than 99.5 µM.

In turn, `NCc1ccc2c(c1)N(C(=O)[C@@H](NC(=O)OCc1ccccc1)c1ccc(OCc3ccccc3)cc1)CC2` yielded an IC50 of 12.3 µM.

In the case of `c1ccc2c(CN3CCCCC3)c[nH]c2c1`, the 50% inhibitory concentration (IC50) is greater than 99.5 µM.
